Assays:
Experiment in all cases: relative viability (nuclei count vs DMSO), 5 days (fraction); higher = more cells survive
A-427 = tested on: A-427
Method in brief: (§1)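 Relative viability is defined as nuclei in treated wells over nuclei in vehicle wells. Duplicate plates were run and medians reported. Lung cancer cell lines in 1536-well plates were dosed by pin tool one day after seeding, with one drug or with a fixed anchor-drug dose plus five library-drug doses (not always all listed) in √10 steps, and nuclei were counted after 5 days.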

UMC-11 = tested on: UMC-11
Method in brief: as §1

NCI-H838 = tested on: NCI-H838
Method in brief: as §1

HARA = tested on: HARA
Method in brief: as §1

ChaGo-K-1 = tested on: ChaGo-K-1
Method in brief: as §1

SK-LU-1 = tested on: SK-LU-1
Method in brief: as §1

ABC-1 = tested on: ABC-1
Method in brief: as §1

NCI-H1993 = tested on: NCI-H1993
Method in brief: as §1

HCC-366 = tested on: HCC-366
Method in brief: as §1

NCI-H2228 = tested on: NCI-H2228
Method in brief: as §1

EMC-BAC-2 = tested on: EMC-BAC-2
Method in brief: as §1

NCI-H1793 = tested on: NCI-H1793
Method in brief: as §1

Q: Which relative viability (A-427; first compound 0.04 µM) does the source give for `C[C@@H]1CN(CC(=O)Nc2ccc3c(c2)Cc2cccc(-c4cc(=O)cc(N5CCOCC5)o4)c2S3)C[C@H](C)O1` + CC(=O)c1c(C)c2cnc(Nc3ccc(N4CCNCC4)cn3)nc2n(C2CCCC2)c1=O [Palbociclib] (partner 0.5 µM) here?
A: 0.428

Q: What about the relative viability (A-427; first compound 0.1265 µM) of the same compound?
A: 0.531

Q: And the relative viability (A-427; first compound 0.4 µM)?
A: 0.537

Q: What about the relative viability (A-427; first compound 4 µM) of the same compound?
A: 0.593

Q: What about the relative viability (UMC-11; first compound 0.04 µM) of the same compound?
A: 0.33

Q: And the relative viability (UMC-11; first compound 0.1265 µM)?
A: 0.332

Q: And the relative viability (UMC-11; first compound 0.4 µM)?
A: 0.321

Q: And the relative viability (UMC-11; first compound 4 µM)?
A: 0.338

Q: And the relative viability (NCI-H838; first compound 0.04 µM)?
A: 0.233

Q: What about the relative viability (NCI-H838; first compound 0.1265 µM) of the same compound?
A: 0.204

Q: And the relative viability (NCI-H838; first compound 0.4 µM)?
A: 0.207

Q: And the relative viability (NCI-H838; first compound 4 µM)?
A: 0.179

Q: What about the relative viability (HARA; first compound 0.04 µM) of the same compound?
A: 0.234

Q: What about the relative viability (HARA; first compound 0.1265 µM) of the same compound?
A: 0.186

Q: And the relative viability (HARA; first compound 0.4 µM)?
A: 0.272

Q: What about the relative viability (HARA; first compound 4 µM) of the same compound?
A: 0.226

Q: And the relative viability (ChaGo-K-1; first compound 0.04 µM)?
A: 0.902

Q: What about the relative viability (ChaGo-K-1; first compound 0.1265 µM) of the same compound?
A: 0.924

Q: What about the relative viability (ChaGo-K-1; first compound 0.4 µM) of the same compound?
A: 0.925

Q: And the relative viability (ChaGo-K-1; first compound 4 µM)?
A: 0.898

Q: And the relative viability (SK-LU-1; first compound 0.04 µM)?
A: 0.434

Q: What about the relative viability (SK-LU-1; first compound 0.1265 µM) of the same compound?
A: 0.372

Q: And the relative viability (SK-LU-1; first compound 0.4 µM)?
A: 0.367

Q: What about the relative viability (SK-LU-1; first compound 4 µM) of the same compound?
A: 0.387

Q: What about the relative viability (ABC-1; first compound 0.04 µM) of the same compound?
A: 0.376

Q: And the relative viability (ABC-1; first compound 0.1265 µM)?
A: 0.673

Q: What about the relative viability (ABC-1; first compound 0.4 µM) of the same compound?
A: 0.634

Q: And the relative viability (ABC-1; first compound 4 µM)?
A: 0.811

Q: And the relative viability (NCI-H1993; first compound 0.04 µM)?
A: 0.645

Q: What about the relative viability (NCI-H1993; first compound 0.1265 µM) of the same compound?
A: 0.729

Q: And the relative viability (NCI-H1993; first compound 0.4 µM)?
A: 0.438

Q: And the relative viability (NCI-H1993; first compound 4 µM)?
A: 0.662

Q: And the relative viability (HCC-366; first compound 0.04 µM)?
A: 0.386

Q: What about the relative viability (HCC-366; first compound 0.1265 µM) of the same compound?
A: 0.467

Q: What about the relative viability (HCC-366; first compound 0.4 µM) of the same compound?
A: 0.395

Q: And the relative viability (HCC-366; first compound 4 µM)?
A: 0.184

Q: And the relative viability (NCI-H2228; first compound 0.04 µM)?
A: 0.993

Q: What about the relative viability (NCI-H2228; first compound 0.1265 µM) of the same compound?
A: 0.743

Q: What about the relative viability (NCI-H2228; first compound 0.4 µM) of the same compound?
A: 0.916

Q: And the relative viability (NCI-H2228; first compound 4 µM)?
A: 0.605

Q: And the relative viability (EMC-BAC-2; first compound 0.04 µM)?
A: 0.502

Q: What about the relative viability (EMC-BAC-2; first compound 0.1265 µM) of the same compound?
A: 0.529

Q: And the relative viability (EMC-BAC-2; first compound 0.4 µM)?
A: 0.502

Q: And the relative viability (EMC-BAC-2; first compound 4 µM)?
A: 0.545

Q: And the relative viability (NCI-H1793; first compound 0.04 µM)?
A: 0.297

Q: And the relative viability (NCI-H1793; first compound 0.1265 µM)?
A: 0.323

Q: What about the relative viability (NCI-H1793; first compound 0.4 µM) of the same compound?
A: 0.296

Reference: the supplement of paper PMC10307832
